Assay results taken from patent publication US20220370416A1, “COMPOUNDS AND METHODS FOR TARGETED DEGRADATION OF KRAS” (Arvinas Operations, Inc., priority 2020, published 2022).

What was measured:
[1] = target: T1, HiBit-KRAS^G12C (Homo sapiens, UniProt P01116, G12C); experiment: HiBit degradation assay in SW1573 HiBit-KRas^G12C cells; type: cell-based; parameters: expressed in transfected cells; host or cells: SW1573 (clone E6), modified pcDNA3.1 vector, TK promoter; details: 24 hours; for Dmax: SW1573, SW1573 HiBit-KRas^G12C
Method in brief: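 SW1573 cells stably expressing N-terminally HiBit-tagged KRAS G12C, under the TK promoter, were treated 24 h at 37 °C with 10 μM to 20 nM compound in 0.1% or 0.5% DMSO. Residual HiBit luminescence normalised to DMSO and fitted with a 4-parameter model for DC50 and Dmax. Points with ≥50% viability loss (alamar blue) excluded.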

[2] = target: T1, HiBit-KRAS^G12C; experiment: HiBit degradation assay in MiaPaCa-2 HiBit-KRas^G12C cells; type: cell-based; details: 24 hours; for Dmax: MIA PaCa-2, MiaPaCa-2 HiBit-KRas^G12C cells; for DC50: read-out: KRas^G12C-HiBiT (MiaPaCa; 0.5% DMSO) IC50
Method: Reagents. SW1573 (CRL-2170) and MiaPaCa-2 (CRL-1420) cells were purchased from ATCC. Both cell lines are […] for the G12C mutation in KRAS. SW1573 cells were cultured in DMEM+F12+Glutamax (+Sodium Bicarbonate, +sodium pyruvate, Thermofisher scientific, #10565) supplemented with 10% FBS (Thermofisher scientific, #2060357) and 1% Antibiotic-Antimycotic (Thermofisher scientific, #15240096). MiaPaCa-2 cells were cultured in DMEM+Glutamax media (Thermofisher scientific, #10566) supplemented with 10% FBS (Thermofisher scientific, #2060357) and 1% Antibiotic-Antimycotic (Thermofisher scientific, #15240096). For degradation assays, 384 well plates were purchased from Corning (Corning® CellBIND® 384-well Flat Clear Bottom Black Polystyrene Microplates, Low Flange, #3770). Gambogic acid was purchased from Selleckchem (#S2448). Alamar blue was purchased from Thermofisher scientific (A50101) and used according to manufacturer instructions. The Nano-Glo® HiBit Lytic Detection System and Nano-Glo® HiBit Blotting System were purchased from Promega (#N3050 and #N2410) and used according to manufacturer instructions.
To create the MiaPaCa-2 HiBit-KRAS^G12C cell line, CRISPR-Cas9 was used to insert the HiBit tag onto the N-terminus of one or more of the four endogenous KRAS^G12C alleles. After knock-in of the tag, individual clones were isolated by single cell dilution and screened for HiBit insertion by PCR. Clones containing the HiBit tag were sequenced and one was identified that contained the desired HiBit-KRAS^G12C sequence at one allele while the remaining three KRAS^G12C alleles were unaffected. This line was used for all subsequent studies.
Either SW1573 HiBit-KRas^G12C or MiaPaCa-2 HiBit-KRas^G12C cells were plated at 9000 cells/well in a 384 well plate (Corning #3770). Exemplary heterobifunctional molecules and positive controls were diluted in the appropriate cell media and applied to the plated cells resulting in a final concentration titration of 10 μM to 20 nM in either 0.1% or 0.5% dimethyl sulfoxide (DMSO). Gambogic acid was used as a positive control for cytotoxicity and titrated from 10 μM to 78 nM. All assays were performed in triplicate. Cells were treated with compounds for 24 hours at 37° C. in an incubator containing 5% CO2. Following treatment, alamar blue was used to determine if any compounds led to a loss in cell viability after 24 hours. The 10× alamar blue reagent was added to a final concentration of 1× as recommended by the manufacturer and cells were returned to the incubator for 4 hours. Plates were then allowed to equilibrate to room temperature and fluorescence was measured using a Perkin-Elmer EnVision. After completion of the fluorescence read, the liquid from each well was removed and the cells were washed with PBS. The Nano-Glo® HiBiT detection reagent was prepared according to the manufacturer's instructions and added to each well after the PBS wash was removed. Following incubation at room temperature for 45 minutes, the luminescence was read using the ultra-sensitive luminescence aperture on the Envision instrument.
Fluorescence values from the alamar blue treatment were normalized to the DMSO only control for each compound titration. We hypothesized that compounds that led to a ≥50% loss in cell viability of the KRAS-independent SW1573 HiBit-KRas^G12C cells were likely generally cytotoxic and loss of HiBit-KRAS^G12C signal from these compounds may be due to lower cell number and not specific KRAS^G12C degradation. These points were therefore excluded from the data analysis for degradation. […]

[3] = 0.5% DMSO, read-out: KRas^G12C-HiBiT (SW1573; 0.5% DMSO) Dmax**
[4] = read-out: KRas^G12C-HiBiT (SW1573; 0.5% DMSO) IC50***, SW1573 HiBit-KRas^G12C, 0.5% DMSO
[5] = 0.5% DMSO, maximum degradation, read-out: KRas^G12C-HiBiT (MiaPaCa; 0.5% DMSO) DMax
[6] = SW1573 HiBit-KRas^G12C, 0.1% DMSO, read-out: KRas^G12C-HIBit (SW1573; 0.1% DMSO) DC50*
[7] = MiaPaCa-2 HiBit-KRas^G12C cells, 0.5% DMSO

T1 sequence (P01116 1-186 isoform P01116-2 G12C limits assumed): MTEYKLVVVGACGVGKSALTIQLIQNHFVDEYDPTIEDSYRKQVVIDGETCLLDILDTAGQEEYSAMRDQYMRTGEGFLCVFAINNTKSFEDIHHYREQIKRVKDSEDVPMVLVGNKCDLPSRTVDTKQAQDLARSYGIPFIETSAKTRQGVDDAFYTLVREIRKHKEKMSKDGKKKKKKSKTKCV

| SMILES | Dmax [1, 3] [%] | DC50 [1, 4] [nM] | Dmax [2, 5] [%] | KRas^G12C-HiBit (SW1573; 0.1% DMSO) Dmax** ([1]; SW1573 HiBit-KRas^G12C, 0.1% DMSO) | DC50 [1, 6] [nM] | KRas^G12C-HiBiT (MiaPaCa; 0.1% DMSO) DMax ([2]; MiaPaCa-2 HiBit-KRas^G12C cells, 0.1% DMSO, maximum degradation) | KRas^G12C-HiBiT (MiaPaCa; 0.5% DMSO) DMax ([2]; MiaPaCa-2 HiBit-KRas^G12C cells, 0.5% DMSO, maximum degradation) | DC50 [2, 7] [nM] | Dmax ([1]; 0.1% DMSO, read-out: KRas^G12C-HiBit (SW1573; 0.1% DMSO) Dmax**) [%] | Dmax ([2]; 0.1% DMSO, maximum degradation, read-out: KRas^G12C-HiBiT (MiaPaCa; 0.1% DMSO) DMax) [%] |
| --- | --- | --- | --- | --- | --- | --- | --- | --- | --- | --- |
| C=C(F)C(=O)N1CCN(c2nc(OCCN3CCC(COCC(=O)N[C@H](C(=O)N4C[C@H](O)C[C@H]4C(=O)N[C@@H](C)c4ccc(-c5scnc5C)cc4)C(C)(C)C)CC3)nc3c(F)c(-c4cc(O)cc5ccccc45)c(Cl)cc23)C[C@@H]1CC#N (atropisomer, axis not shown) [Compound 151, (2S,4R)-1-[(2S)-2-[2-({1-[2-({6-chloro-4-[(3S)-3-(cyanomethyl)-4-(2-fluoroprop-2-enoyl)piperazin-1-yl]-8-fluoro-7-(3-hydroxynaphthalen-1-yl)quinazolin-2-yl}oxy)ethyl]piperidin-4-yl}methoxy)acetamido]-3,3-dimethylbutanoyl]-4-hydroxy-N-[(1S)-1-[4-(4-methyl-1,3-thiazol-5-yl)phenyl]ethyl]pyrrolidine-2-carboxamide] | > 70 | < 100 | > 70 |  |  |  |  |  |  |  |
| C=CC(=O)N1CCN(c2nc(OCCN3CCC(OCCOc4cc([C@H](C(=O)N5C[C@H](O)C[C@H]5C(=O)N[C@@H](C)c5ccc(-c6scnc6C)cc5)C(C)C)on4)CC3)nc3c(F)c(-c4cc(O)cc5ccccc45)c(Cl)cc23)C[C@@H]1CC#N (atropisomer, axis not shown) [Compound 3, (2S,4R)-1-((R)-2-(3-(2-((1-(2-(((S)-4-((S)-4-acryloyl-3-(cyanomethyl)piperazin-1-yl)-6-chloro-8-fluoro-7-(3-hydroxynaphthalen-1-yl)quinazolin-2-yl)oxy)ethyl)piperidin-4-yl)oxy)ethoxy)isoxazol-5-yl)-3-methylbutanoyl)-4-hydroxy-N-((S)-1-(4-(4-methylthiazol-5-yl)phenyl)ethyl)pyrrolidine-2-carboxamide] |  |  |  | A (A ≥ 70) | < 100 | A (A ≥ 70) | A (A ≥ 70) |  |  |  |
| C=CC(=O)N1CCN(c2nc(OCCN3CCC(COCC(=O)N[C@H](C(=O)N4C[C@H](O)C[C@H]4C(=O)N[C@@H](C)c4ccc(-c5scnc5C)cc4)C(C)(C)C)CC3)nc3c(F)c(-c4cccc5cccc(C)c45)c(Cl)cc23)C[C@@H]1CC#N [Compound 135, (2S,4R)-1-[(2S)-2-[2-({1-[2-({6-chloro-4-[(3S)-3-(cyanomethyl)-4-(prop-2-enoyl)piperazin-1-yl]-8-fluoro-7-(8-methylnaphthalen-1-yl)quinazolin-2-yl}oxy)ethyl]-piperidin-4-yl}methoxy)acetamido]-3,3-dimethylbutanoyl]-4-hydroxy-N-[(1S)-1-[4-(4-methyl-1,3-thiazol-5-yl)phenyl]ethyl]pyrrolidine-2-carboxamide] | 35 to 70 | 100 to 1000 | 35 to 70 |  |  |  |  | 100 to 1000 |  |  |
| C=CC(=O)N1CCN(c2nc(OCCN3CCC4(CC3)CN(c3cc([C@@H](C(=O)N5C[C@H](O)C[C@H]5C(=O)N[C@@H](C)c5ccc(-c6ccnn6C)cc5)C(C)C)on3)C4)nc3c(F)c(-c4cc(O)cc5ccccc45)c(Cl)cc23)C[C@@H]1CC#N (atropisomer, axis not shown) [Compound 101, (2S,4R)-1-[(2S)-2-(3-{7-[2-({6-chloro-4-[(3S)-3-(cyanomethyl)-4-(prop-2-enoyl)piperazin-1-yl]-8-fluoro-7-(3-hydroxynaphthalen-1-yl)quinazolin-2-yl}oxy)ethyl]-2,7-diazaspiro[3.5]nonan-2-yl}-1,2-oxazol-5-yl)-3-methylbutanoyl]-4-hydroxy-N-[(1S)-1-[4-(1-methyl-1H-pyrazol-5-yl)phenyl]ethyl]pyrrolidine-2-carboxamide] |  | > 1000 |  |  |  |  |  | > 1000 |  |  |
| C=CC(=O)N1CCN(c2nc(O[C@H](C)CN3CCC(CCOCC(=O)N[C@H](C(=O)N4C[C@H](O)C[C@H]4C(=O)N[C@@H](C)c4ccc(-c5scnc5C)cc4)C(C)(C)C)CC3)nc3c(F)c(-c4cc(O)cc5ccccc45)c(Cl)cc23)CC1 [Compound 68, (2S,4R)-1-[(2S)-2-[2-(2-{1-[(2R)-2-{[6-chloro-8-fluoro-7-(3-hydroxynaphthalen-1-yl)-4-[4-(prop-2-enoyl)piperazin-1-yl]quinazolin-2-yl]oxy}propyl]piperidin-4-yl}ethoxy)acetamido]-3,3-dimethylbutanoyl]-4-hydroxy-N-[(1S)-1-[4-(4-methyl-1,3-thiazol-5-yl)phenyl]ethyl]pyrrolidine-2-carboxamide] | 35 to 70 |  | 35 to 70 |  | 100 to 1000 |  |  |  | 35 to 70 | < 35 |
| C=CC(=O)N1CCN(c2nc(OCCN3CCC(CN(C)c4cc([C@@H](C(=O)N5C[C@H](O)C[C@H]5C(=O)N[C@@H](C)c5ccc(-c6scnc6C)cc5)C(C)C)on4)CC3)nc3c(F)c(-c4cc(O)cc5ccccc45)c(Cl)cc23)C[C@@H]1CC#N [Compound 144, (2S,4R)-1-[(2S)-2-{3-[({1-[2-({6-chloro-4-[(3S)-3-(cyanomethyl)-4-(prop-2-enoyl)piperazin-1-yl]-8-fluoro-7-(3-hydroxynaphthalen-1-yl)quinazolin-2-yl}oxy)ethyl]piperidin-4-yl}methyl)(methyl)amino]-1,2-oxazol-5-yl}-3-methylbutanoyl]-4-hydroxy-N-[(1S)-1-[4-(4-methyl-1,3-thiazol-5-yl)phenyl]ethyl]pyrrolidine-2-carboxamide] | < 35 | 100 to 1000 |  |  |  |  |  | > 1000 |  |  |
| Cc1ncsc1-c1ccc([C@H](C)NC(=O)[C@@H]2C[C@@H](O)CN2C(=O)[C@@H](NC(=O)COCC2CCN(CCOc3nc(N4CCN(C(=O)/C=C/CN(C)C)[C@@H](CC#N)C4)c4cc(Cl)c(-c5cc(O)cc6ccccc56)c(F)c4n3)CC2)C(C)(C)C)cc1 [Compound 165, (2S,4R)-1-[(2S)-2-[2-({1-[2-({6-chloro-4-[(3S)-3-(cyanomethyl)-4-[(2E)-4-(dimethylamino)but-2-enoyl]piperazin-1-yl]-8-fluoro-7-(3-hydroxynaphthalen-1-yl)quinazolin-2-yl}oxy)ethyl]piperidin-4-yl}methoxy)acetamido]-3,3-dimethylbutanoyl]-4-hydroxy-N-[(1S)-1-[4-(4-methyl-1,3-thiazol-5-yl)phenyl]ethyl]pyrrolidine-2-carboxamide] | 35 to 70 | 100 to 1000 | 35 to 70 |  |  |  |  | > 1000 |  |  |
